In patent US6559099B1, “Methods for enhancing plant health, protecting plants from biotic and abiotic stress related injuries and enhancing the recovery of plants injured as a result of such stresses” (Wisconsin Alumni Research Foundation, priority 2000, dated 2003):
Several values for one entry are separate records, joined by “and”; a condition that tells them apart may be missing. Equal values may be shown once.

Legend:
Assay type in all cases: in vivo
Tomato plants cv. H9478 = test: Protection of drought injury and enhancement of recovery
Description: Tomato plants cv. […] (cultivar of Heinz Co.) were grown in 20 liter pots and placed in a growth chamber maintained at 24/18° C. day/night temperatures and a 16 hour photoperiod with 400 μmol m^-2s^-1 of cool-white fluorescent lights. Two month-old plants were sprayed with either distilled water, […]) or LPE 18:1 (100 mg/L) before exposure to drought stress. Drought stress was given by withholding water for 2 days. The plants were sprayed once again with distilled water, […]) or LPE 18:1 (100 mg/L) right after water was given (alleviation of water stress). During drought stress, all water, […] 18:1-sprayed plants were severely wilted but regained turgor soon after water was given again.

Tomato Plants cv. H9144 [1] = test: Protection of pesticide (Marathon, imidacloprid) injury and enhancement of recovery; settings: 200 mg/L in 1% ethanol; 10 days after spraying (FIG. 3)
Text: Marathon with active […] of imidacloprid (available from Olympic Chemical Co., PO Box K, Mainland, Pa.) is a pesticide used for controlling whitefly in plants. This is a systemic pesticide and is introduced to the plant via soil application. As the pesticide accumulates in the foliage the insects feeding on the plants are killed. Sometimes as this chemical accumulates in the plant it can result in phytotoxicity to the plant. To test this, tomato plants cv. […] (cultivar of Heinz Co.) were grown for two (2) months in 20 liter pots in a greenhouse. […] Many leaves lost chlorophyll and plants had poor shoot growth. Three weeks after the treatment of pesticide, […]18:1 or LPI (200 mg/L each) solution containing 1% ethanol were sprayed to the point that solution started to run off the leaves. Control plants were sprayed with distilled water containing 1% ethanol. The LPE solution was prepared by wetting 200 mg of LPE in 1 ml ethanol and then adding distilled water to make 1 liter of total volume. The LPE solution was then sonicated 1 minute before spraying.

'Hazel' oat seeds = test: Seedling vigour (root and shoot fresh weight) of 'Hazel' oats soaked in LPE or LPC; settings: 10 ppm (each), incubated at 20° C.; for Root fresh wt per seedling / Shoot Fresh wt per seedling: soaked 30 minutes; for Root fresh wt per seedlings / Shoot Fresh wt per seedlings: soaked 2 hours
Text: Values are mean±SE (4 replications). […] Values are mean±SE (4 replications).

H.2350 field corn seeds = test: Germination and seedling fresh weight of field corn seeds soaked in LPE solution; settings: incubated at 25° C. for 8 days
Description: H.2350 (Certified seed obtained from the Wisconsin Crop Improvement Association, Madison, Wis.) field corn seeds were soaked in LPE solution. Seeds were incubated at 25° C. for 8 days using the procedure described in Example 6. Four replications were conducted with 50 seeds in each replication.

'Hazel' oats = test: Germination of 'Hazel' oats soaked in LPE or LPC; settings: 10 ppm (each), incubated at 20° C.
Description: ‘Hazel’ oats (Certified seed obtained from the Wisconsin Crop Improvement Association, Madison, Wis.) were soaked in LPE or LPC. Seeds were soaked for either 30 minutes or 2 hours at room temperature (23±2° C.) and then incubated at 20° C. using the official seed germination test rules (Rules for testing seeds are published by the Association of Official Seed Analysts) for testing seeds. Four replications were conducted with 100 seeds in each replication. […] Moreover, a greater proportion of the seeds treated with these lipids, germinated earlier. Thus, this seed treating increased both the rate and amount of seed germination.

[2] = system: Sweet corn seeds (SS Jubilee); test: Germination and seedling fresh mass of sweet corn seeds soaked in LPE solution; settings: soaked 2 hours
Description: Sweet corn seeds (SS Jubilee, certified seed obtained from the Wisconsin Crop Improvement Association, Madison Wis.) were soaked for 2 hours in LPE solution. Seeds were removed from the LPE solution and 50 seeds were placed on 2 paper towels and wetted with distilled water (5 seeds in one row) then seeds were covered with another wet paper towel. The three towels with the seeds were rolled, placed in a metal container and incubated at 25° C. The container was covered with plastic and the cover secured with a rubber band. The germination percentage was tested after 4 and 7 days. The procedure was as specified by the Association of Official Seed Analysts. Four replications were conducted with 50 seeds in each replication. […] Furthermore, LPE treated seeds produced larger (root and shoot) seedlings. SS Jubilee sweet corn seeds were soaked for 2 hours in LPE solution. Seeds were incubated using the same procedure described in Example 6. The germination percentage was tested after 4 and 7 days. Four replications were conducted with 50 seeds in each replication. […] On a commercial level, this means that LPE treatment of the seeds will insure more plants in a given field and that LPE treated seeds will produce plants having a head start.

Tomato Plants cv. H9144 [3] = test: Protection of chilling injury and enhancement of recovery, tomato seedlings; settings: for Leaf Chlorophyll Mean ± SE / Leaf Phospholipids Mean ± SE / Leaf Water (fresh/dry wt ratio) Mean ± SE: measured 10 days after chilling
Description: Tomato Plants cv. […] (cultivar of Heinz Co.) were grown in 20-liter pots containing […], Ohio) in a greenhouse which was supplied with additional tungsten light for a 16 hour photoperiod. […] Control leaf branch was sprayed with distilled water. The LPE solution was prepared by suspending 200 mg of crude […] (Avanti Polar Lipids, Inc., Alabaster, Ala.) in one liter of distilled water and then sonicating for 1 minute before spraying. After 4 days of chilling treatment at 4/2° C. day/night temperatures and a 16 hour photoperiod with 200 μmol m^-2 s^-1 fluorescent light intensity, plants were transferred to a growth chamber maintained at 24/18° C. day/night temperatures and a 16 hour photoperiod with 400 μmol m^-2 s^-1 of fluorescent light intensity. […] When measured 10 days after chilling, LPE-sprayed leaf tissues, either before or after chilling, had higher levels of water, chlorophyll, and phospholipid content than water-sprayed control (see Table 1 below). […] Chilling and recovery conditions were the same as in Example 1a above.

[4] = system: Cucumber (Cucumis sativus inbred line-WI2238) plants; test: Protection of chilling injury and recovery, cucumber seedlings; settings: 100 mg/L sprayed twice, 1 hour before and right after 2 days chilling
Description: Cucumber (Cucumis sativus inbred line-WI2238) plants were grown in 4 liter plastic pots containing a sterilized mixture of peat:sand:composited soil:field soil (1:1:1:1, v/v) at a greenhouse. Growing conditions and other details were same as in Example 1a. […] After 2 days of chilling treatment at the same conditions as in Example 1a , plants were transferred to a growth chamber maintained at 23±2° C. temperature and 16 hour photoperiod with 400 μmol […] of fluorescent light intensity.

[5] = system: castor bean (Ricinus communis L. cv Hale)
[6] = 100 mg/L sprayed before drought and right after water was given, after 2 or 3 days
[7] = 200 mg/L LPEegg spray, 4 days chilling at 4/2° C., vs water-sprayed control
[8] = 200 mg/L sprayed 1 hour before chilling
[9] = 200 mg/L sprayed right after chilling

Compound: CCCCCCCC/C=C\CCCCCCCC(=O)OCC(O)COP(=O)(O)OCCN (stereo not drawn) [LPE 18:1]
- shoot growth after drought stress (Tomato plants cv. H9478; [6]): vigorous shoot growth
- shoot growth after drought stress (Tomato plants cv. H9478; 100 mg/L, 7 days after drought stress was alleviated (FIG. 2)): vigorous shoot growth
- shoot growth after pesticide injury (Tomato Plants cv. H9144 [1]): vigorous shoot growth

Compound: Lysophosphatidyl choline [LPC]
- Root fresh wt per seedling ('Hazel' oat seeds): 40.4 ± 2.7 mg
- Shoot Fresh wt per seedling ('Hazel' oat seeds): 108.9 ± 4.5 mg
- Root fresh wt per seedlings ('Hazel' oat seeds): 48.9 ± 0.7 mg
- Shoot Fresh wt per seedlings ('Hazel' oat seeds): 130.4 ± 2.7 mg

Compound: lysophosphatidylethanolamine [LPE]
- % Germination (H.2350 field corn seeds; 5 ppm): 97.0 ± 0.6%
- Fresh Weight Root (primary + secondary), average mass produced from 50 seeds (H.2350 field corn seeds; 5 ppm): 14.2 ± 0.8 g
- Fresh Weight Shoot, average mass produced from 50 seeds (H.2350 field corn seeds; 5 ppm): 16.2 ± 0.6 g
- % Germination (H.2350 field corn seeds; 10 ppm): 98.5 ± 1.0%
- Fresh Weight Root (primary + secondary), average mass produced from 50 seeds (H.2350 field corn seeds; 10 ppm): 13.6 ± 0.3 g
- Fresh Weight Shoot, average mass produced from 50 seeds (H.2350 field corn seeds; 10 ppm): 15.6 ± 0.7 g
- % Germination (Mean ± SE) After 4 days ('Hazel' oats; soaked 30 min): 87.7 ± 0.9% and 82.5 ± 1.7%
- % Germination (Mean ± SE) After 10 days ('Hazel' oats; soaked 30 min): 91.3 ± 0.7% and 90.8 ± 1.1%
- % Germination (Mean ± SE) After 4 days ('Hazel' oats; soaked 2 hours): 82.8 ± 1.1% and 82.0 ± 1.2%
- % Germination (Mean ± SE) After 10 days ('Hazel' oats; soaked 2 hours): 94.3 ± 1.3% and 93.5 ± 1.0%
- Average Fresh Mass Produced from 50 seeds, Root (primary + secondary) ([2]; Table 2, 5 ppm): 1.6 ± 0.4 g
- Average Fresh Mass Produced from 50 seeds, Shoot ([2]; Table 2, 5 ppm): 10.0 ± 0.5 g
- % Germination After 4 days ([2]; Table 2, 5 ppm, 25° C.): 61.0 ± 1.7%
- % Germination After 7 days ([2]; Table 2, 5 ppm, 25° C.): 70.0 ± 2.2%
- Average Fresh Mass Produced from 50 seeds, Root (primary + secondary) ([2]; Table 2, 10 ppm): 1.3 ± 0.1 g
- Average Fresh Mass Produced from 50 seeds, Shoot ([2]; Table 2, 10 ppm): 8.7 ± 0.2 g
- % Germination After 4 days ([2]; Table 2, 10 ppm, 25° C.): 69.0 ± 2.6%
- % Germination After 7 days ([2]; Table 2, 10 ppm, 25° C.): 71.5 ± 2.8%
- Average Fresh Mass Produced from 50 seeds, Root (primary + secondary) ([2]; Table 2, 20 ppm): 1.2 ± 0.0 g
- Average Fresh Mass Produced from 50 seeds, Shoot ([2]; Table 2, 20 ppm): 10.4 ± 0.4 g
- % Germination After 4 days ([2]; Table 2, 20 ppm, 25° C.): 60.0 ± 3.6%
- % Germination After 7 days ([2]; Table 2, 20 ppm, 25° C.): 65.0 ± 1.3%
- % Germination After 4 days ([2]; Table 3 (Example 7), 1 ppm): 68.5 ± 4.0%
- % Germination After 7 days ([2]; Table 3 (Example 7), 1 ppm): 76.5 ± 4.6%
- Average Fresh Mass Produced from 50 seeds, Root (primary + secondary) ([2]; Table 3 (Example 7), 1 ppm): 0.9 ± 0.1 g
- Average Fresh Mass Produced from 50 seeds, Shoot ([2]; Table 3 (Example 7), 1 ppm): 9.1 ± 0.8 g
- % Germination After 4 days ([2]; Table 3 (Example 7), 10 ppm): 61.5 ± 5.7% and 73.8 ± 2.8%
- % Germination After 7 days ([2]; Table 3 (Example 7), 10 ppm): 68.0 ± 3.4% and 78.0 ± 2.3%
- Average Fresh Mass Produced from 50 seeds, Root (primary + secondary) ([2]; Table 3 (Example 7), 10 ppm): 0.8 ± 0.0 g and 1.1 ± 0.1 g
- Average Fresh Mass Produced from 50 seeds, Shoot ([2]; Table 3 (Example 7), 10 ppm): 7.6 ± 0.3 g and 10.4 ± 0.4 g
- protection from chilling injury (Tomato Plants cv. H9144 [3]; 100 mg/L LPEegg sprayed 1 hour before chilling, vs water-sprayed and non-sprayed controls): most effective in protecting the plant from chilling injury
- chilling damage to the leaves (Tomato Plants cv. H9144 [3]; [7]): mitigation of chilling damage to the leaves
- shoot meristem growth after chilling (Tomato Plants cv. H9144 [3]; [7]): enhanced shoot meristem growth
- Leaf Chlorophyll Mean ± SE (Tomato Plants cv. H9144 [3]; [8]): 21.6 ± 0.1 mg/g dry wt
- Leaf Phospholipids Mean ± SE (Tomato Plants cv. H9144 [3]; [8]): 25.9 ± 0.3 nmol/mg dry wt
- Leaf Water (fresh/dry wt ratio) Mean ± SE (Tomato Plants cv. H9144 [3]; [8]): 10.1 ± 0.4 fresh/dry wt ratio
- Leaf Chlorophyll Mean ± SE (Tomato Plants cv. H9144 [3]; [9]): 28.2 ± 4.0 mg/g dry wt
- Leaf Phospholipids Mean ± SE (Tomato Plants cv. H9144 [3]; [9]): 25.7 ± 1.0 nmol/mg dry wt
- Leaf Water (fresh/dry wt ratio) Mean ± SE (Tomato Plants cv. H9144 [3]; [9]): 10.81 ± 0.5 fresh/dry wt ratio
- shoot growth after drought stress (Tomato plants cv. H9478; [6]): vigorous shoot growth
- Root fresh wt per seedling ('Hazel' oat seeds): 48.4 ± 1.9 mg
- Shoot Fresh wt per seedling ('Hazel' oat seeds): 124.1 ± 3.0 mg
- Root fresh wt per seedlings ('Hazel' oat seeds): 46.4 ± 0.6 mg
- Shoot Fresh wt per seedlings ('Hazel' oat seeds): 121.1 ± 2.5 mg
- chilling damage in leaves [4]: severe chilling damage in leaves
- shoot growth after chilling ([4]; after 7 days): vigorous shoot growth
- leaf curling and browning after wounding ([5]; after 1 day): much less leaf curling and browning
- leaf turgidity after wounding ([5]; in vivo): remained turgid for several days
- wound-healing symptoms ([5]; in vivo): leaf damaged areas were healed and gained green color

Compound: lysophosphatidylinositol [LPI]
- shoot growth after pesticide injury (Tomato Plants cv. H9144 [1]): vigorous shoot growth
